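Results reflect a 48-hour exposure of cells in 96-well plates to compound at five concentrations. TGI: concentration producing complete growth inhibition.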 Where a SMILES comes first, the peptide text is derived from it. [ ]: non-standard residue; d: D form. The star is where a group is joined. Iva = CC[C](C)(N)C(=O)O; Boc = CC(C)(C)OC(=O)*; X52 = C1CCC(=NO*)C1
How the values were obtained:
Experiment in all cases: NCI tumour cell line growth inhibition, 48 h
[1] = system: SN12K1 renal
[2] = system: DMS 114 small cell lung
[3] = system: P388/ADR leukemia
[4] = system: P388 leukemia
[5] = system: 786-0 renal
[6] = system: MDA-MB-435
[7] = system: HS 578T breast
[8] = system: MDA-MB-231 breast
[9] = system: DU-145 prostate
[10] = system: PC-3 prostate
[11] = system: LXFL 529 NSCLC

Compound	TGI [1]	TGI [2]	TGI [3]	TGI [4]	TGI [5]	TGI [6]	TGI [7]	TGI [8]	TGI [9]	TGI [10]	TGI [11]
COc1cc2cc3c4cc(OC)c(OC)cc4cc[n+]3cc2cc1OC	> 100 µM	6.6 µM	> 100 µM	> 100 µM	–	–	–	–	–	–	–
O=[N+]([O-])c1ccc(N=Nc2c(O)ccc3ccccc23)c([N+](=O)[O-])c1	–	–	–	–	> 100 µM	> 100 µM	> 100 µM	> 100 µM	> 100 µM	> 100 µM	–
CC(C)OP(=O)(OC(C)C)c1nc(-c2ccccc2)n(-c2ccc([N+](=O)[O-])cc2)n1	–	> 100 µM	–	–	–	–	–	–	–	–	> 100 µM
COc1ccc(C2SCC(=O)N2NC(=O)c2ccncc2)cc1F (stereo not drawn)	–	> 100 µM	–	–	–	–	–	–	–	–	> 100 µM
O=C(Nc1ccccc1)c1cc2ccccc2c(N=Nc2ccc([N+](=O)[O-])cc2)c1O	–	–	–	–	> 100 µM	> 100 µM	> 100 µM	> 100 µM	> 100 µM	> 100 µM	–
CCC(C)(NC(=O)C(C)NC(=O)OC(C)(C)C)C(=O)NC(C)C(=O)NC(C)(CC)C(=O)ON=C1CCCC1 (stereo not drawn) (Boc-A[Iva]A[Iva]-X52; configuration not given here)	–	–	–	–	–	> 100 µM	> 100 µM	> 100 µM	> 100 µM	> 100 µM	–
C1CSCCSCCSCCSC1	–	–	–	–	–	> 100 µM	> 100 µM	> 100 µM	> 100 µM	> 100 µM	–
CCCC[C@H]1[C@@H](OCOc2ccccc2)COC(=O)N1[C@H](C)c1ccccc1	–	–	–	–	–	38.5 µM	52.8 µM	37.3 µM	53.3 µM	23.4 µM	–
O=P1(Oc2ccc(Cl)cc2Cl)Oc2ccc3ccccc3c2-c2c(ccc3ccccc23)O1	43.1 µM	–	> 100 µM	> 100 µM	–	–	–	–	–	–	–

Reference: PubChem BioAssay (NCI)
